Reference: patent US20240252454A1, “COMPOSITION COMPRISING AN INHIBITOR OF MITOCHONDRIAL TRANSCRIPTION” (LEAD DISCOVERY CENTER GMBH, priority 2021, published 2024)

Legend:
Test in all cases: SRB assay, IMT combined with inhibitor
Type in all cases: cell-based
A375 = A375 (skin); concentration series of the labelled inhibitor + fixed concentration of IMT (3S)-1-[(2R)-2-[4-(2-chloro-4-fluoro-phenyl)-2-oxo-chromen-7-yl]oxypropanoyl]piperidine-3-carboxylic acid (Table 3: 40 nM, 120 h); negative=synergistic, positive=antagonistic
Method in brief: (§1)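 Cellular biomass changes were measured by sulforhodamine B staining in medium with 5 mM glucose, at least two independent replicates. Dilution series of MAPK pathway standard-of-care inhibitors were combined with a fixed 40 nM (3S)-1-[(2R)-2-[4-(2-chloro-4-fluoro-phenyl)-2-oxo-chromen-7-yl]oxypropanoyl]piperidine-3-carboxylic acid; growth followed over 120 h versus untreated cells.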

BXPC3 = BXPC3 (pancreas); concentration series of the labelled inhibitor + fixed concentration of IMT (3S)-1-[(2R)-2-[4-(2-chloro-4-fluoro-phenyl)-2-oxo-chromen-7-yl]oxypropanoyl]piperidine-3-carboxylic acid (Table 3: 40 nM, 120 h); negative=synergistic, positive=antagonistic
Method in brief: as §1

COLO205 = COLO205 (colon); concentration series of the labelled inhibitor + fixed concentration of IMT (3S)-1-[(2R)-2-[4-(2-chloro-4-fluoro-phenyl)-2-oxo-chromen-7-yl]oxypropanoyl]piperidine-3-carboxylic acid (Table 3: 40 nM, 120 h); negative=synergistic, positive=antagonistic
Method in brief: as §1

GRANTA-519 = GRANTA-519 (hematological); concentration series of the labelled inhibitor + fixed concentration of IMT (3S)-1-[(2R)-2-[4-(2-chloro-4-fluoro-phenyl)-2-oxo-chromen-7-yl]oxypropanoyl]piperidine-3-carboxylic acid (Table 3: 40 nM, 120 h); negative=synergistic, positive=antagonistic
Method in brief: as §1

HCT116 = HCT116 (colon); concentration series of the labelled inhibitor + fixed concentration of IMT (3S)-1-[(2R)-2-[4-(2-chloro-4-fluoro-phenyl)-2-oxo-chromen-7-yl]oxypropanoyl]piperidine-3-carboxylic acid (Table 3: 40 nM, 120 h); negative=synergistic, positive=antagonistic
Method in brief: as §1

HEPG2 = HEPG2 (liver); concentration series of the labelled inhibitor + fixed concentration of IMT (3S)-1-[(2R)-2-[4-(2-chloro-4-fluoro-phenyl)-2-oxo-chromen-7-yl]oxypropanoyl]piperidine-3-carboxylic acid (Table 3: 40 nM, 120 h); negative=synergistic, positive=antagonistic
Method in brief: as §1

HT1080 = HT1080 (connective tissue); concentration series of the labelled inhibitor + fixed concentration of IMT (3S)-1-[(2R)-2-[4-(2-chloro-4-fluoro-phenyl)-2-oxo-chromen-7-yl]oxypropanoyl]piperidine-3-carboxylic acid (Table 3: 40 nM, 120 h); negative=synergistic, positive=antagonistic
Method in brief: as §1

HT29 = HT29 (colon); concentration series of the labelled inhibitor + fixed concentration of IMT (3S)-1-[(2R)-2-[4-(2-chloro-4-fluoro-phenyl)-2-oxo-chromen-7-yl]oxypropanoyl]piperidine-3-carboxylic acid (Table 3: 40 nM, 120 h); negative=synergistic, positive=antagonistic
Method in brief: as §1

IMR90 = IMR90 (lung); concentration series of the labelled inhibitor + fixed concentration of IMT (3S)-1-[(2R)-2-[4-(2-chloro-4-fluoro-phenyl)-2-oxo-chromen-7-yl]oxypropanoyl]piperidine-3-carboxylic acid (Table 3: 40 nM, 120 h); negative=synergistic, positive=antagonistic
Method in brief: as §1

LOVO = LOVO (colon); concentration series of the labelled inhibitor + fixed concentration of IMT (3S)-1-[(2R)-2-[4-(2-chloro-4-fluoro-phenyl)-2-oxo-chromen-7-yl]oxypropanoyl]piperidine-3-carboxylic acid (Table 3: 40 nM, 120 h); negative=synergistic, positive=antagonistic
Method in brief: as §1

MHHES1 = MHHES1 (bone); concentration series of the labelled inhibitor + fixed concentration of IMT (3S)-1-[(2R)-2-[4-(2-chloro-4-fluoro-phenyl)-2-oxo-chromen-7-yl]oxypropanoyl]piperidine-3-carboxylic acid (Table 3: 40 nM, 120 h); negative=synergistic, positive=antagonistic
Method in brief: as §1

NCIH460 = NCIH460 (lung); concentration series of the labelled inhibitor + fixed concentration of IMT (3S)-1-[(2R)-2-[4-(2-chloro-4-fluoro-phenyl)-2-oxo-chromen-7-yl]oxypropanoyl]piperidine-3-carboxylic acid (Table 3: 40 nM, 120 h); negative=synergistic, positive=antagonistic
Method in brief: as §1

PANC1 = PANC1 (pancreas); concentration series of the labelled inhibitor + fixed concentration of IMT (3S)-1-[(2R)-2-[4-(2-chloro-4-fluoro-phenyl)-2-oxo-chromen-7-yl]oxypropanoyl]piperidine-3-carboxylic acid (Table 3: 40 nM, 120 h); negative=synergistic, positive=antagonistic
Method in brief: as §1

SKMEL28 = SKMEL28 (skin); concentration series of the labelled inhibitor + fixed concentration of IMT (3S)-1-[(2R)-2-[4-(2-chloro-4-fluoro-phenyl)-2-oxo-chromen-7-yl]oxypropanoyl]piperidine-3-carboxylic acid (Table 3: 40 nM, 120 h); negative=synergistic, positive=antagonistic
Method in brief: as §1

CC(C)Nc1cc(-c2c[nH]c(C(=O)N[C@H](CO)c3cccc(Cl)c3)c2)c(Cl)cn1 [Ulixertinib]
difference between the calculated combinatorial index (BLISS) and the observed combinatorial effect (A375): 0.0427 | difference between the calculated combinatorial index (BLISS) and the observed combinatorial effect (BXPC3): 0.0946 | difference between the calculated combinatorial index (BLISS) and the observed combinatorial effect (COLO205): 0.0384 | difference between the calculated combinatorial index (BLISS) and the observed combinatorial effect (GRANTA-519): 0.0393 | difference between the calculated combinatorial index (BLISS) and the observed combinatorial effect (HCT116): −0.0066 | difference between the calculated combinatorial index (BLISS) and the observed combinatorial effect (HEPG2): 0.0953 | difference between the calculated combinatorial index (BLISS) and the observed combinatorial effect (HT1080): −0.0011 | difference between the calculated combinatorial index (BLISS) and the observed combinatorial effect (HT29): 0.0702 | difference between the calculated combinatorial index (BLISS) and the observed combinatorial effect (IMR90): 0.0678 | difference between the calculated combinatorial index (BLISS) and the observed combinatorial effect (LOVO): 0.0039 | difference between the calculated combinatorial index (BLISS) and the observed combinatorial effect (MHHES1): 0.0992 | difference between the calculated combinatorial index (BLISS) and the observed combinatorial effect (NCIH460): 0.0088 | difference between the calculated combinatorial index (BLISS) and the observed combinatorial effect (PANC1): 0.0634 | difference between the calculated combinatorial index (BLISS) and the observed combinatorial effect (SKMEL28): 0.0022
